Each compound was assayed against T1, PIP4K2C (Homo sapiens, UniProt Q8TBX8) (assay: HiBiT PIP4K2C degradation assay in MOLT-4 cells (endogenous PIP4K2C C-terminally tagged with HiBiT)). Conditions: 6 hours of incubation time, rather than 24 hours; MOLT-4, top concentration 10 micromolar; read-out: HiBIT-degradation MOLT4 PIP4k2C DC50 (6 hours, marked *).
T1 sequence (Q8TBX8 1-421): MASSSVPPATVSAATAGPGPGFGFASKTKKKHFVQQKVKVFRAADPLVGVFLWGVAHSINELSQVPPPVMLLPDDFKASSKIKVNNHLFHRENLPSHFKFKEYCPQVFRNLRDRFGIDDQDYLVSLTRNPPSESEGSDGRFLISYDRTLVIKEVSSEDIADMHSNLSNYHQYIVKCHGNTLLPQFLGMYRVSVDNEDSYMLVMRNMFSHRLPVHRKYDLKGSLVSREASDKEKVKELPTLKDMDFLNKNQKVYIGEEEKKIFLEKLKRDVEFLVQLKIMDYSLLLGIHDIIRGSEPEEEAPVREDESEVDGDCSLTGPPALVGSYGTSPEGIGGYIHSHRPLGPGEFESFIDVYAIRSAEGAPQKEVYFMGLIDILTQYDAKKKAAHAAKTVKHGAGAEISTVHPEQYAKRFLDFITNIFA
Format: cell-based
Design: untagged in primary human PBMCs and monocyte-derived dendritic cells
Method in brief: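 Luminescent HiBiT lytic readout of residual PIP4K2C-HiBiT (CRISPR knock-in, MOLT-4, phenol red-free RPMI-1640 + 10% FBS). Cells exposed 6 or 24 h at 37 C to compound, top 10 micromolar, 3-fold, 10 points, duplicate. Hill fit (Levenberg-Marquardt) gives DC50.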

| DC50 | Structure (SMILES) |
| --- | --- |
| < 500 nM | O=C1CCC(Nc2ccc(N3CCC(N4CCC(C(=O)N[C@H]5CC[C@H](Nc6ncc(F)c(-c7cccc(N8CCCOC8=O)c7)n6)CC5)CC4)C(F)C3)c(F)c2)C(=O)N1 (stereo partly drawn) [Compound 525, 1′-(4-((2,6-dioxopiperidin-3-yl)amino)-2-fluorophenyl)-3′-fluoro-N-((1r,4r)-4-((5-fluoro-4-(3-(2-oxo-1,3-oxazinan-3-yl)phenyl)pyrimidin-2-yl)amino)cyclohexyl)-[1,4′-bipiperidine]-4-carboxamide] |
| < 500 nM | O=C1CCC(Nc2ccc(N3CCC(N4CC5(CC(C(=O)N[C@H]6CC[C@H](Nc7ncc(F)c(-c8cccc(-n9ccccc9=O)c8)n7)CC6)C5)C4)CC3)c(F)c2)C(=O)N1 (stereo partly drawn) [Compound 575, trans-2-(1-(4-((2,6-dioxopiperidin-3-yl)amino)-2-fluorophenyl)piperidin-4-yl)-N-((1r,4r)-4-((5-fluoro-4-(3-(2-oxopyridin-1(2H)-yl)phenyl)pyrimidin-2-yl)amino)cyclohexyl)-2-azaspiro[3.3]heptane-6-carboxamide] |
| < 500 nM | O=C1CCC(Nc2ccc(N3CCN(C4CC5(C4)CN(C(=O)O[C@H]4CC[C@H](Nc6ncc(F)c(-c7cccc(-n8ccccc8=O)c7)n6)CC4)C5)CC3)c(F)c2)C(=O)N1 (stereo partly drawn) [Compound 681, trans-4-((5-fluoro-4-(3-(2-oxopyridin-1 (2H)-yl)phenyl)pyrimidin-2-yl)amino)cyclohexyl 6-(4-(4-((2,6-dioxopiperidin-3-yl)amino)-2-fluorophenyl)piperazin-1-yl)-2-azaspiro[3.3]heptane-2-carboxylate] |
| < 500 nM | O=C1CCC(Nc2ccc(C3CCN(C4CCN(C(=O)O[C@H]5CC[C@H](Nc6ncc(F)c(-c7cccc(-n8ccccc8=O)c7)n6)CC5)CC4F)CC3)c(F)c2)C(=O)N1 (stereo partly drawn) [Compound 695, trans-4-((5-fluoro-4-(3-(2-oxopyridin-1 (2H)-yl)phenyl)pyrimidin-2-yl)amino)cyclohexyl 4-(4-((2,6-dioxopiperidin-3-yl)amino)-2-fluorophenyl)-3′-fluoro-[1,4′-bipiperidine]-1′-carboxylate] |
| < 500 nM | O=C1CCC(Nc2ccc(C3CCN(CC4CCC(C(=O)N5CCC(Nc6ncc(F)c(-c7cccc(N8CCCCC8)c7)n6)CC5)CC4)CC3)c(F)c2)C(=O)N1 (stereo not drawn) [Compound 682, trans-3-((3-fluoro-4-(1-((4-(4-((5-fluoro-4-(3-(piperidin-1-yl)phenyl)pyrimidin-2-yl)amino)piperidine-1-carbonyl)cyclohexyl)methyl)piperidin-4-yl)phenyl)amino)piperidine-2,6-dione] |
| < 500 nM | O=C1CC[C@H](Nc2ccc(N3CCC(N4CCC(C(=O)N[C@H]5CC[C@H](Nc6ncc(F)c(-c7cccc(N8CCCOC8=O)c7)n6)CC5)CC4)CC3)c(F)c2)C(=O)N1 [Compound 542, 1′-(4-(((S)-2,6-dioxopiperidin-3-yl)amino)-2-fluorophenyl)-N-((trans)-4-((5-fluoro-4-(3-(2-oxo-1,3-oxazinan-3-yl)phenyl)pyrimidin-2-yl)amino)cyclohexyl)-[1,4′-bipiperidine]-4-carboxamide] |

Second part, the compound before the results:

| Structure (SMILES) | DC50 |
| --- | --- |
| O=C1CCC(Nc2ccc(N3CCC(CN4CCC(C(=O)N[C@H]5CC[C@H](Nc6ncc(F)c(-c7cccc(-n8ccccc8=O)c7)n6)CC5)CC4)CC3)c(F)c2)C(=O)N1 (mixture of isomers) [Compound 433, 1-((1-(4-((2,6-dioxopiperidin-3-yl)amino)-2-fluorophenyl)piperidin-4-yl)methyl)-N-((1r,4r)-4-((5-fluoro-4-(3-(2-oxopyridin-1(2H)-yl)phenyl)pyrimidin-2-yl)amino)cyclohexyl)piperidine-4-carboxamide] | < 500 nM |
| O=C1CCC(Nc2ccc(N3CCC(CC4CCN(C(=O)[C@H]5CC[C@H](Nc6ncc(F)c(-c7cccc(N8CCCOC8=O)c7)n6)CC5)CC4)CC3)c(F)c2)C(=O)N1 (stereo partly drawn) [Compound 425, trans-3-((3-fluoro-4-(4-((1-(-4-((5-fluoro-4-(3-(2-oxo-1,3-oxazinan-3-yl)phenyl)pyrimidin-2-yl)amino)cyclohexane-1-carbonyl)piperidin-4-yl)methyl)piperidin-1-yl)phenyl)amino)piperidine-2,6-dione] | < 500 nM |
| O=C1CC[C@H](Nc2ccc(N3CCN(CC4(O)CCN(C(=O)[C@H]5CC[C@H](Nc6ncc(F)c(-c7cccc(-n8ccccc8=O)c7)n6)CC5)CC4)CC3)c(F)c2)C(=O)N1 (single isomer, unassigned) [Compound 423] | < 500 nM |
| O=C1CCC(Nc2ccc(N3CCN([C@H]4CC[C@H](NC(=O)[C@H]5CC[C@H](Nc6ncc(F)c(-c7cccc(N8CCOCC8=O)c7)n6)CC5)CC4)CC3)c(F)c2)C(=O)N1 (stereo partly drawn) [Compound 508, trans-N-(trans-4-(4-(4-((2,6-dioxopiperidin-3-yl)amino)-2-fluorophenyl)piperazin-1-yl)cyclohexyl)-4-((5-fluoro-4-(3-(3-oxomorpholino)phenyl)pyrimidin-2-yl)amino)cyclohexane-1-carboxamide] | < 500 nM |
| Cn1nc(C2CCC(=O)NC2=O)c2ccc(N3CCN([C@H]4CC[C@H](C(=O)N[C@H]5CC[C@H](Nc6ncc(F)c(-c7cccc(-c8ccc[nH]c8=O)c7)n6)CC5)CC4)CC3)cc21 (stereo partly drawn) [Compound 389, trans-(1r,4R)-4-(4-(3-(2,6-dioxopiperidin-3-yl)-1-methyl-1H-indazol-6-yl)piperazin-1-yl)-N-((1r,4R)-4-((5-fluoro-4-(3-(2-oxo-1,2-dihydropyridin-3-yl)phenyl)pyrimidin-2-yl)amino)cyclohexyl)cyclohexane-1-carboxamide] | < 500 nM |
| O=C1CCC(Nc2ccc(C3CCN(CC4CCN(C(=O)[C@H]5CC[C@H](Nc6ncc(F)c(-c7cccc(-c8ccc[nH]c8=O)c7)n6)CC5)CC4)CC3(F)F)c(F)c2)C(=O)N1 (stereo partly drawn) [Compound 408, trans-3-[4-[3,3-difluoro-1-[[1-[4-[[5-fluoro-4-[3-(2-oxo-1H-pyridin-3-yl)phenyl]pyrimidin-2-yl]amino]cyclohexanecarbonyl]-4-piperidyl]methyl]-4-piperidyl]-3-fluoro-anilino]piperidine-2,6-dione] | < 500 nM |
| O=C1CCC(Nc2ccc(N3CCC(N4CCC(C(=O)N[C@H]5CC[C@H](Nc6ncc(F)c(-c7cccc(-c8ccc[nH]c8=O)c7)n6)CC5)CC4)C(F)C3)c(F)c2)C(=O)N1 (stereo partly drawn) [Compound 406, 1′-(4-((2,6-dioxopiperidin-3-yl)amino)-2-fluorophenyl)-3′-fluoro-N-((1r,4r)-4-((5-fluoro-4-(3-(2-oxo-1,2-dihydropyridin-3-yl)phenyl)pyrimidin-2-yl)amino)cyclohexyl)-[1,4′-bipiperidine]-4-carboxamide] | < 500 nM |

Same assay, conditions: 24 hours incubation, MOLT-4, top concentration 10 micromolar; read-out: HiBIT-degradation MOLT4 PIP4k2C 24 hours DC50

| DC50 | Structure (SMILES) |
| --- | --- |
| < 500 nM | Cn1c(=O)n(C2CCC(=O)NC2=O)c2ccc(C3CCN(CCC4CCN(C(=O)[C@H]5CCC[C@@H](Nc6ncc(Cl)c(-c7cccc(-c8ccccc8)c7)n6)C5)CC4)CC3)cc21 (relative stereo) [Compound 52, cis-3-(5-(1-(2-(1-(3-((4-([1,1′-biphenyl]-3-yl)-5-chloropyrimidin-2-yl)amino)cyclohexane-1-carbonyl)piperidin-4-yl)ethyl)piperidin-4-yl)-3-methyl-2-oxo-2,3-dihydro-1H-benzo[d]imidazol-1-yl)piperidine-2,6-dione] |
| < 500 nM | O=C1CCC(n2c(=O)oc3cc(C4CCN(CCC5(O)CCN(C(=O)[C@H]6CCC[C@@H](Nc7ncc(F)c(-c8cccc(-n9ccccc9=O)c8)n7)C6)CC5)CC4)ccc32)C(=O)N1 (relative stereo) [Compound 347, cis-3-(6-(1-(2-(1-(3-((5-fluoro-4-(3-(2-oxopyridin-1(2H)-yl)phenyl)pyrimidin-2-yl)amino)cyclohexane-1-carbonyl)-4-hydroxypiperidin-4-yl)ethyl)piperidin-4-yl)-2-oxobenzo[d]oxazol-3 (2H)-yl)piperidine-2,6-dione] |
| < 500 nM | O=C1CCC(N2Cc3cc(C4CCN(CCC5CCN(C(=O)[C@H]6CCC[C@@H](Nc7ncc(Cl)c(-c8cccc(-c9ccccc9)c8)n7)C6)CC5)CC4)ccc3C2=O)C(=O)N1 (relative stereo) [Compound 62, cis-3-(5-(1-(2-(1-(3-((4-([1,1′-biphenyl]-3-yl)-5-chloropyrimidin-2-yl)amino)cyclohexane-1-carbonyl)piperidin-4-yl)ethyl)piperidin-4-yl)-1-oxoisoindolin-2-yl)piperidine-2,6-dione] |
| < 500 nM | O=C1CCC(N2Cc3cc(C4CCN(C(=O)CN5CCC(C(=O)N6CCC(Nc7ncc(Cl)c(-c8cccc(-c9ccccc9)c8)n7)CC6)CC5)CC4)ccc3C2=O)C(=O)N1 (stereo not drawn) [Compound 56, 3-(5-(1-(2-(4-(4-((4-([1,1′-biphenyl]-3-yl)-5-chloropyrimidin-2-yl)amino)piperidine-1-carbonyl)piperidin-1-yl)acetyl)piperidin-4-yl)-1-oxoisoindolin-2-yl)piperidine-2,6-dione] |

Same assay, conditions: read-out: HiBIT-degradation MOLT4 PIP4k2C 24 hours DC50; 24 hours incubation, MOLT-4, top concentration 10 micromolar

| DC50 | Structure (SMILES) |
| --- | --- |
| < 500 nM | Cn1c(=O)n(C2CCC(=O)NC2=O)c2ccc(N3CCC(N4CCC(C(=O)N[C@H]5CC[C@H](Nc6ncc(F)c(-c7cccc(-n8ccccc8=O)c7)n6)CC5)CC4)CC3)cc21 (stereo partly drawn) [Compound 344, trans-1′-(1-(2,6-dioxopiperidin-3-yl)-3-methyl-2-oxo-2,3-dihydro-1H-benzo[d]imidazol-5-yl)-N-(4-((5-fluoro-4-(3-(2-oxopyridin-1(2H)-yl)phenyl)pyrimidin-2-yl)amino)cyclohexyl)-[1,4′-bipiperidine]-4-carboxamide] |

From patent US20260355196A1, “INHIBITORS AND DEGRADERS OF PIP4K PROTEIN” (Larkspur Biosciences, Inc., priority 2023, published 2026)
